Data from patent publication US8053415B2, “Compounds having RD targeting motifs” (Washington University in St. Louis, priority 2005, dated 2011).
Entries after “also recorded” stand apart in the source; their conditions may differ. Where two headings read alike, the source gives them in different places. Each block holds one molecule with its values, some of them ahead of it. Where a SMILES comes first, the peptide text is derived from it. Where no end group is shown, it is not given here. [ ]: non-standard residue; d: D form. The star is where a group is joined. Cypate = CC1(C)C(/C=C/C=C/C=C/C=C2/N(CCC(=O)*)c3ccc4ccccc4c3C2(C)C)=[N+](CCC(=O)O)c2ccc3ccccc3c21

What was measured:
A549 tumor [1] = test: In vivo fluorescence optical imaging and ex vivo organ distribution in A549 tumor-bearing nude mice; settings: for uptake / retention in A549 tumor: 0.3 μmol per kg via lateral tail vein, fluorescence imaging
Procedure: All in vivo studies were performed in compliance with the Washington University in St Louis Animal Study Committee's requirements for the care and use of laboratory animals in research. Nude mice (18-22 g) were anesthetized with xylazine/ketamine cocktail via intraperitoneal injection and placed in a supine position. The mice were injected subcutaneously with A549 cells (1×10^6) in the lower back of the mice. Tumor masses were palpable at 5-7 days post implant, which reached 5 mm in 10-15 days. Prior to injection of the probe, the mice were anesthetized as described above. A 29-gauge needle was used to inject the probes into the mouse via the lateral tail vein. The molecular probe (100 μL) was injected via the lateral tail vein at 0.3 μmol per kg of body weight. […] [SEQ ID NO:1] were constituted in a vial, and doses of 0.3 μmol per kg of body weight were injected into the A549 tumor-bearing mice.
A non-invasive in vivo continuous wave fluorescence imaging apparatus was used to visualize the distribution and preferential tissue uptake of the cypate-peptide molecular beacons in the nude mice (Achilefu (2004) Technol. Cancer Res. Treat. 3:393-409, incorporated herein by reference). Light from two laser diodes of nominal wavelength 780 nm and nominal power of 50 mW was launched into a fiber optic bundle. Two laser diodes were used to produce as much uniform illumination of the whole animal or organ parts as possible. The nominal 50 mW of incident power was reduced to about 44 mW at the output of the fiber optic bundle. A de-focusing lens in position after the bundle expanded the beam such that nearly the whole animal was illuminated. A Photometrics CCD camera (16 bit, 1024×1024 pixel, back illuminated, thermoelectric Peltier cooled with forced air) was used to capture the emitted photons. An interference filter (830 nm) was mounted in front of the CCD camera input lens such that only emitted fluorescent light from the contrast agent was imaged. Real-time acquisition, display and data processing software (WinView/32) was used to obtain the optical image. The samples were dissolved in 20% aqueous DMSO and animals were injected with doses of 0.3 μmol/kg body weight via the lateral tail vein. Injected volumes were 100 μL for each mouse. Data analysis consisted of subtracting (pixel by pixel) the pre-injection image from the post injection images, and displaying the false color results. Integration of the relative fluorescence intensities of tumor vs. surrounding tissues indicated the extent of selective uptake of the contrast agent. At the completion of the study, the mice were euthanized and some organ parts were excised and rinsed with water. The tissues were placed under the CCD camera and the fluorescence emission from each organ was measured after excitation with the 780 nm laser sources. Tissue parts, instead of whole organs, were used to minimize problems associated with depth-dependent non-linear fluorescence emission. A statistical program in the WinView package was used to estimate the mean fluorescence intensity per organ part.
In vivo optical imaging studies using the cypate-peptide optical probes were performed and analyzed as described above in Example 1. […]

[2] = Absorption and emission spectral properties in 20% aqueous DMSO; type: physicochemical
Procedure: The spectral properties of cypate and the cypate-peptide conjugates were determined in 20% aqueous DMSO, which solubilizes all the compounds. […] Absorbance measurements were performed with a Beckman Coulter DU 640 spectrophotometer. The fluorescence spectra were recorded on Fluorolog-3 fluorometer (HORIBA Jobin Yvon Inc., Edison, N.J.). To prepare the stock solutions, a high precision analytical balance was used to weigh >2 mg of each compound, which was dissolved in DMSO. The DMSO solutions were then diluted with water to obtain a final solution of 20% aqueous DMSO. An aliquot (known volume) of the solution was transferred to a cuvette with 1 μL precision micropipettes and diluted with 20% aqueous DMSO solvent mixture to give a working solution that absorbs at <1.0 absorbance unit. Aliquots of the working solution were diluted with 20% aqueous DMSO and used to determine the molar absorptivity of each compound. For fluorescence measurements, probe solutions with 0.1 absorbance units were used to minimize inner filter effects.
Previous studies have shown that this solvent mixture boosts fluorescence intensity and is well tolerated by rodents. Additionally, the dyes and their peptide conjugates are soluble in this solvent mixture, providing a common medium for spectral measurements.
Absorbance spectra were measured on a Beckman Coulter DU 640 UV-Visible spectrophotometer. Fluorescence spectra were recorded on a HORIBA Jobin Yvon Fluorolog-3 fluorometer. Stock solutions (1.0 mM) of the conjugates were prepared by dissolving each sample in 80% aqueous DMSO. UV-Vis and fluorescence measurements were carried out by adding 5.0 μL of the stock solutions via a micropipette into 3 mL of 20% aqueous DMSO in a quartz cuvette.

A549 cells [3] = test: Cellular internalization and blocking studies by fluorescence microscopy (Example 1); settings: for internalization in A549 cells: 1 μM
[4] = target: T1, purified human αvβ3 integrin protein (Homo sapiens, UniProt P05106+P06756); test: Competitive αvβ3 integrin receptor binding assay with 125I-echistatin tracer (Example 2)
T1 construct: purchased Chemicon International, Inc. (Temecula, Calif.)
Procedure: The binding affinities were measured based on the competitive binding between purified αvβ3 integrin (ABI) and peptide ligands. Echistatin is a polypeptide that binds irreversibly with high affinity and specificity to ABI. ^125I-echistatin was used as a tracer in ABI binding assays.
Receptor binding assays were performed by using purified human αvβ3 integrin protein from Chemicon International, Inc. (Temecula, Calif.). Assays were carried out using the Millipore Duropore membrane 96-well plates and the Millipore MultiScreen system (Bedford, Mass.). The 96-well membrane plate was blocked with 0.1% Polythylenimine blocking solution overnight at 4° C. ^125I-echistatin (50 nmol/L) was added to the binding buffer (50 mM Tris-HCl, pH 7.4, 100 mM NaCl, 2 mM CaCl2, 1 mM MgCl2, 1 mM MnCl2, 1% BSA) containing integrin protein (50 ng per well in 96-well membrane plate) and ligands in a total volume of 200 μL per well. The concentration range of ligand was between 0.01 μM and 100 μM. The mixtures were incubated for 2 h at room temperature, the ABI was then filtered by centrifugation at 1500 g and washed three times with 0.20 mL of ice-cold binding buffer. The filters containing radioactivity bound ABI were removed using a punch apparatus and counted using a Packard Cobra II Auto-gamma counter (Meriden, Conn.). […] Radiolabeling of ^125I-echistatin (Amersham Biosciences, Piscataway, N.J.) was carried out in a mixture of 0.25% BSA, 5.0% lactose, 0.21% citric acid and aprotinin (0.9 TIU/ml).

A549 tumor [5] = system: A549 tumor; design: species or system mice; settings: mouse, in vivo
Excerpt: The hypothesis that the “RD” motif was solely responsible for the tumor uptake was further tested by injecting ^111In-DOTA-GRD [SEQ ID NO:15] (120 μCi; 1 Ci=37 GBq) into A549 tumor-bearing mice.

A549 cells [6] = test: CyQuant cytotoxicity and proliferation assay; type: cell-based, human; settings: 48 hours
Procedure: Cells were seeded at 2.5×10^4 cells/well and grown in 96 well plates in the presence of 0−1.5×10^−5 M cypate conjugated peptides for 24 or 48 hours. Cell proliferation was measured using the CyQuant proliferation assay from Molecular Probes (Eugene, Oreg.) per the manufacturer's protocol. Briefly, after incubation the microplate was inverted to remove the media and frozen at −70° C. overnight. The microplate was thawed at room temperature and 200 μL of the CyQuant GR dye/cell-lysis buffer was added to each well. […]
Because the Cyquant assay is based on the adherence of a dye to nucleic acids, the assay is a measure of both proliferative and cytotoxic effects.

[7] = Table 2, read-out: IC50 (αvβ3 integrin binding affinities)

Molecule: CC1(C)C(/C=C/C=C/C=C/C=C2\N(CCCCS(=O)(=O)O)c3ccc4ccccc4c3C2(C)C)=[N+](CCCCS(=O)(=O)[O-])c2ccc3ccccc3c21 [indocyanine green, reference compound]
uptake / retention in A549 tumor (A549 tumor [1]): None of the three non-ABI-specific probes were retained in the A549 tumor tissue

^abεmax [2]: 244,400 cm^−1Mol^−1
^abλmax [2]: 786 nm
^emλmax [2]: 811 nm
time of clearance from blood by the liver (A549 tumor [1]; after injection): ≤ 4 h
Molecule: CC1(C)C(/C=C/C=C/C=C/C=C2/N(CCC(=O)O)c3ccc4ccccc4c3C2(C)C)=[N+](CCC(=O)[O-])c2ccc3ccccc3c21 [Cypate, cypate, reference compound]
internalization in A549 cells (A549 cells [3]; 37° C.): did not internalize
uptake / retention in A549 tumor (A549 tumor [1]): not retained in the tumor; also recorded: None of the three non-ABI-specific probes were retained in the A549 tumor tissue

IC50 ([4]; Table 3, read-out: IC50): 1.89 µM
Molecule: CC(C)[C@@H]1NC(=O)[C@@H](Cc2ccccc2)NC(=O)[C@H](CC(=O)O)NC(=O)CNC(=O)[C@H](CCCNC(=N)N)NC(=O)[C@H](CCCCN)NC1=O [Cyclo(DPhe-Val-Lys-Arg-Gly-Asp)-OH] (HELM PEPTIDE1{R.G.D.[dF].V.K}$PEPTIDE1,PEPTIDE1,1:R1-6:R2$$$V2.0)

Molecule: N=C(N)NCCC[C@H](NC(=O)CNC(=O)CN1CCN(CC(=O)O)CCN(CC(=O)O)CCN(CC(=O)O)CC1)C(=O)N[C@@H](CC(=O)O)C(=O)N[C@@H](CO)C(=O)N1CCC[C@H]1C(=O)N[C@@H](CCCCN)C(=O)O [^111In-DOTA-GRD, metal not drawn] (HELM PEPTIDE1{[O=C(O)CN1CCN(CC(=O)O)CCN(CC(=O)[*:2])CCN(CC(=O)O)CC1].G.R.D.S.P.K}$$$$V2.0)
clearance (scintigraphy) (A549 tumor [5]): rapid renal clearance
localization of the material (A549 tumor [5]): nearly all of the material localized in the bladder

Molecule: CC1(C)C(=CC=CC=CC=CC2=[N+](CCC(=O)O)c3ccc4ccccc4c3C2(C)C)N(CCC(=O)N[C@H]2CSSC[C@@H](C(N)=O)NC(=O)[C@H](CC(=O)O)NC(=O)CNC(=O)[C@H](CCCNC(=N)N)NC2=O)c2ccc3ccccc3c21 [Cypate-cyclo(CRGDC)-NH2] (HELM PEPTIDE1{[CC1(C)C(/C=C/C=C/C=C/C=C2/N(CCC(=O)[*:2])c3ccc4ccccc4c3C2(C)C)=[N+](CCC(=O)O)c2ccc3ccccc3c21].C.R.G.D.C.[am]}$PEPTIDE1,PEPTIDE1,2:R3-6:R3$$$V2.0)
IC50 [4, 7]: 4.6 µM

IC50 ([4]; Table 3, read-out: IC50): 0.722 µM
Molecule: CC(C)[C@H](NC(=O)[C@@H](NC(=O)[C@@H]1CSSC[C@H](NC(=O)[C@H](N)Cc2ccccc2)C(=O)N[C@@H](Cc2ccc(O)cc2)C(=O)N[C@H](Cc2c[nH]c3ccccc23)C(=O)N[C@@H](CCCCN)C(=O)N[C@@H]([C@@H](C)O)C(=O)N1)[C@@H](C)O)C(=O)N[C@@H](CCCNC(=N)N)C(=O)NCC(=O)N[C@@H](CC(=O)O)C(N)=O [H-DPhe-Cyclo(Cys-Tyr-DTrp-Lys-Thr-Cys)-Thr-Val-Arg-Gly-Asp-NH2] (HELM PEPTIDE1{[dF].C.Y.[dW].K.T.C.T.V.R.G.D.[am]}$PEPTIDE1,PEPTIDE1,2:R3-7:R3$$$V2.0)

Molecule: Cypate-3-GRDSPK ({Cypate‑3}-GRDSPK; listed as Homo sapiens) [Cyp-3-GRD]
^abεmax [2]: 128,538 cm^−1Mol^−1
^abλmax [2]: 684 nm
^emλmax [2]: 703 nm
internalization in A549 cells (A549 cells [3]; 37° C.): internalized
cellular localization at 4° C. (A549 cells [3]; A549 cells incubated at 4° C.): remained in the peripheral region of the cell membrane
translocation into the nucleus (A549 cells [3]; A549 cells, 37° C.): did not translocate into the nucleus

Molecule: GRDSPK (listed as Homo sapiens) [GRD peptide]
blocking of Cyp-GRD uptake in the tumor by co-injection (A549 tumor [1]; equimolar, 0.3 μmol/kg body weight, 24 h post injection): unable to block

Molecule: cytate [reference compound]
uptake / retention in A549 tumor (A549 tumor [1]): None of the three non-ABI-specific probes were retained in the A549 tumor tissue

IC50 [4, 7]: 79.5 µM
Molecule: CC(C)[C@@H]1NC(=O)[C@@H](Cc2ccccc2)NC(=O)[C@H](CC(=O)O)NC(=O)CNC(=O)[C@H](CCCNC(=N)N)NC(=O)[C@H](CCCCNC(=O)CCN2/C(=C/C=C/C=C/C=C/C3=[N+](CCC(=O)O)c4ccc5ccccc5c4C3(C)C)C(C)(C)c3c2ccc2ccccc32)NC1=O [Cyp-cyclo-RGD, Cypate-cyclo[RGDfVK^(Cypate)]] (cyclo(RGD[dF]VK(Cypate)))
cytotoxicity (CyQuant), longer treatment (A549 cells [6]): some cytotoxicity
uptake / retention in A549 tumor (A549 tumor [1]): preferentially localized
accumulation / retention in nontarget tissues (A549 tumor [1]; 24 h post injection): equally high
retention in the tumor, cyclic versus linear Cyp-RGD (A549 tumor [1]; 24 h post injection): higher by a factor of three
